Results from patent publication US5681826A, “Saccharide composition with reduced reducibility, and preparation and uses thereof” (Kabushiki Kaisha Hayashibara Seibutsu Kagaku Kenkyujo, priority 1994, dated 1997).

Key:
[1] = Reducing power on the Somogyi-Nelson's method expressed by DE; assay type: physicochemical; conditions: d.s.b.
Description: The reducing powders of these novel high-purity saccharides were determined on the Somogyi-Nelson's method and expressed by DE.

[2] = Maillard reaction with glycine, absorbance at 480 nm; assay type: physicochemical; conditions: for Coloration degree (480 nm): one % glycine, 10% saccharide, pH 7.0, 100°C., 90 min, 1-cm cell
Description: A solution, containing one % glycine and 10% of a saccharide preparation PI, P II, P III, P IV or P V in Experiment 4 and 50 mM phosphate buffer (pH 7.0), was kept at 100° C. for 90 min, followed by cooling the resultant solution, and determining for absorbance at a wave length of 480 nm in a 1-cm cell. As a control, maltotriose, maltotetraose, maltopentaose, maltohexaose and maltoheptaose, as a material for the saccharide preparations, were similarly treated as above, and measured for absorbance at a wave length of 480 nm.
A solution, containing one % of glycine, 10% of a high-purity trehalose preparation with a purity of 99.5%, d.s.b., obtained by the method in Experiment 17, and 50 mM phosphate buffer (pH 7.0), was kept at 100° C. for 90 min, followed by cooling the resultant solution and determining the absorbance at a wave length of 480 nm in a 1-cm cell. As a control, glucose and maltose were similarly treated as above, and the resultants were determined for absorbance at a wave length of 480 nm.

[3] = system: glucoamylase; test: Enzymatic hydrolysis by glucoamylase; assay type: biochemical; conditions: for Glucose / Molecular ratio (Glucose/Trehalose) / Trehalose: one unit glucoamylase, pH 4.5, 40°C., 6 hours
Description: Fifty mg aliquots of non-reducing saccharide preparations P I, P II, P III, P IV and P V in Experiment 4 were respectively dissolved in one ml of 50 mM acetate buffer (pH 4.5), admixed with one unit of glucoamylase commercialized by Seikagaku-Kogyo Co., Ltd., Tokyo, Japan, to effect enzymatic hydrolysis at 40° C. for 6 hours. HPLC analysis only detected glucose and trehalose in all resultant mixtures. The percentages and the molecular ratios of glucose to trehalose in each saccharide are in Table 5.

[4] = system: β-amylase; test: Hydrolysis by β-amylase; assay type: biochemical
[5] = system: α-amylase; test: Hydrolysis by α-amylase derived from pig pancreas; assay type: in vitro ADME; conditions: for Saccharide composition of hydrolysate by α-amylase: G1 (glucose) / Saccharide composition of hydrolysate by α-amylase: G2 (maltose) / Saccharide composition of hydrolysate by α-amylase: G3 (maltotriose) / Saccharide composition of hydrolysate by α-amylase: P I / Saccharide composition of hydrolysate by α-amylase: P II: one unit, pH 6.9, 37°C., 18 hours
Description: (§1) The enzymatic reaction with the α-amylase was as follows: Dissolve 10 mg of a substrate in one ml of 50 mM phosphate buffer (pH 6.9), mix the resultant solution with one unit of the α-amylase, and incubate the resultant mixture at 37° C. for 18 hours. The enzymatic reaction with the α-glucosidase was conducted under the same conditions as in the case of α-amylase except that 50 mM acetate buffer (pH 4.0) was used as a buffer. The enzymatic reaction using the rat intestinal acetone powder was carried out under the same conditions as in the case of α-amylase except that 50 mM maleate buffer (pH 6.0) was used as a buffer. The saccharide compositions obtained by the α-amylase, α-glucosidase and rat intestinal acetone powder are respectively in Tables 6, 7 and 8.

[6] = system: α-glucosidase; test: Hydrolysis by α-glucosidase derived from rice; assay type: biochemical; conditions: pH 4.0, 37°C., 18 hours
Description: as §1

[7] = Hydrolysis by rat intestinal acetone powder; assay type: in vitro ADME; conditions: pH 6.0, 37°C., 18 hours
Description: as §1

[8] = Acute toxicity test (Experiment 8); conditions: mouse, in vivo, po
Text: (§2) By using 7-week old dd-strain mice, the non-reducing saccharide preparation P I, P II, P III, P IV or P V was orally administered to the mice for acute toxicity test.

[9] = system: mice; test: Acute toxicity test (Experiment 8); conditions: oral, highest possible doses
Text: as §2

[10] = biological target: T1, trehalose-releasing enzyme (Rhizobium sp. M-11, UniProt Q53238); test: Action of trehalose-releasing enzyme on α-glycosyltrehalose and maltooligosaccharides (Table 13); assay type: biochemical; conditions: 20% substrate, 2 units/g, 40°C., pH 7.0, 48 hours; label = substrate
T1 construct: M-11 culture
T1 sequence (Q53238 1-596): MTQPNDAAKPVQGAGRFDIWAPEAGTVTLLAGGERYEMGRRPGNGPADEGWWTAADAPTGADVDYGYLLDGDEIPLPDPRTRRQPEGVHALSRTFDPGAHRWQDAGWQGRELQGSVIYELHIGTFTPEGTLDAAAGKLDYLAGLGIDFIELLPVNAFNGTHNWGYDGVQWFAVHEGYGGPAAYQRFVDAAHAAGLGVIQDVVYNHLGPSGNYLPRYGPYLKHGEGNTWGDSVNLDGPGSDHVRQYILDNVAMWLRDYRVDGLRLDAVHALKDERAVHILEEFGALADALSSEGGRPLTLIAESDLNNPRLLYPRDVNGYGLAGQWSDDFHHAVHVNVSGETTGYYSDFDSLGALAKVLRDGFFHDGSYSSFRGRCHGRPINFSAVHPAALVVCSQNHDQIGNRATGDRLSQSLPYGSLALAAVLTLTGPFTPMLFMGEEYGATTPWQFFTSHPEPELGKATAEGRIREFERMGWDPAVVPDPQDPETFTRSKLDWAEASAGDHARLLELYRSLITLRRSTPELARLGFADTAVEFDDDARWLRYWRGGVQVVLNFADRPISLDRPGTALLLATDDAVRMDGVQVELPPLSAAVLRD
Description: An aqueous solution containing 20%, d.s.b., of one of the above 5 non-reducing saccharide preparations, namely α-glycosyltrehalose preparations, was prepared, followed by mixing it with 2 units/g substrate, d.s.b., of the purified trehalose-releasing enzyme obtained in Experiment 15, and subjecting the resultant to an enzymatic reaction at 40° C. and pH 7.0 for 48 hours. The resultant each reaction mixture was desalted, and analyzed for saccharide composition on HPLC using "WAKOBEADS WB-T-330 column", a column of Wako Pure Chemical Industries Ltd., Tokyo, Japan. As a control, a fresh preparation of the same trehalose-releasing enzyme was allowed to act on maltotriose, maltotetraose, maltopentaose, maltohexaose or maltoheptaose, and the resultant each reaction mixture was analyzed for saccharide composition on HPLC.

SMILES: OC[C@H]1O[C@H](O[C@H]2O[C@H](CO)[C@@H](O[C@H]3O[C@H](CO)[C@@H](O[C@H]4O[C@H](CO)[C@@H](O)[C@H](O)[C@H]4O)[C@H](O)[C@H]3O)[C@H](O)[C@H]2O)[C@H](O)[C@@H](O)[C@@H]1O [P II, α-maltosyltrehalose]
- DE (reducing power) [1]: 0.35
- Coloration degree relative to corresponding material maltooligosaccharides [2]: 3-6%
- Coloration degree (480 nm) [2]: 0.018
- Hydrolysis by glucoamylase [3]: hydrolyzed into 2 glucose molecules and one trehalose molecule
- Glucose [3]: 52.0%
- Molecular ratio (Glucose/Trehalose) [3]: 2.06
- Trehalose [3]: 48.0%
- Hydrolysis by β-amylase [4]: not hydrolyzed
- Hydrolysis by α-amylase [5]: not substantially hydrolyzed
- Saccharide composition of hydrolysate by α-amylase: G1 (glucose) [5]: 0
- Saccharide composition of hydrolysate by α-amylase: G2 (maltose) [5]: 0.8
- Saccharide composition of hydrolysate by α-amylase: G3 (maltotriose) [5]: 0.4
- Saccharide composition of hydrolysate by α-amylase: P I [5]: 0
- Saccharide composition of hydrolysate by α-amylase: P II [5]: 98.8
- Saccharide composition of hydrolysate by α-glucosidase: Glucose [6]: 52.1%
- Saccharide composition of hydrolysate by α-glucosidase: Other saccharides [6]: 0.3%
- Saccharide composition of hydrolysate by α-glucosidase: Trehalose [6]: 47.6%
- Saccharide composition of hydrolysate by rat intestinal acetone powder: Glucose [7]: 52.5%
- Saccharide composition of hydrolysate by rat intestinal acetone powder: Other saccharides [7]: 0.4%
- Saccharide composition of hydrolysate by rat intestinal acetone powder: Trehalose [7]: 47.1%
- LD50 [8]: ≥ 50000 mg/kg
- Mortality [9]: no mouse died
- Percentage of reducing saccharide released (glucose, maltose, maltotriose, maltotetraose or maltopentaose) [10]: 44.4%
- Percentage of trehalose released [10]: 44.3%

SMILES: OC[C@H]1O[C@H](O[C@H]2O[C@H](CO)[C@@H](O[C@H]3O[C@H](CO)[C@@H](O[C@H]4O[C@H](CO)[C@@H](O[C@H]5O[C@H](CO)[C@@H](O)[C@H](O)[C@H]5O)[C@H](O)[C@H]4O)[C@H](O)[C@H]3O)[C@H](O)[C@H]2O)[C@H](O)[C@@H](O)[C@@H]1O [P III, α-maltotriosyltrehalose]
- DE (reducing power) [1]: 0.10
- Coloration degree relative to corresponding material maltooligosaccharides [2]: 3-6%
- Coloration degree (480 nm) [2]: 0.012
- Hydrolysis by glucoamylase [3]: hydrolyzed into 3 glucose molecules and one trehalose molecule
- Glucose [3]: 61.4%
- Molecular ratio (Glucose/Trehalose) [3]: 3.02
- Trehalose [3]: 38.6%
- Hydrolysis by β-amylase [4]: one maltose molecule and one P I molecule
- Hydrolysis by α-amylase [5]: hydrolyzed by the α-amylase into lower molecular weight oligosaccharides
- Saccharide composition of hydrolysate by α-amylase: G1 (glucose) [5]: 1.2
- Saccharide composition of hydrolysate by α-amylase: G2 (maltose) [5]: 33.0
- Saccharide composition of hydrolysate by α-amylase: G3 (maltotriose) [5]: 0
- Saccharide composition of hydrolysate by α-amylase: P I [5]: 61.0
- Saccharide composition of hydrolysate by α-amylase: P II [5]: 4.8
- Saccharide composition of hydrolysate by α-glucosidase: Glucose [6]: 61.7%
- Saccharide composition of hydrolysate by α-glucosidase: Other saccharides [6]: 0.2%
- Saccharide composition of hydrolysate by α-glucosidase: Trehalose [6]: 38.1%
- Saccharide composition of hydrolysate by rat intestinal acetone powder: Glucose [7]: 62.0%
- Saccharide composition of hydrolysate by rat intestinal acetone powder: Other saccharides [7]: 0.4%
- Saccharide composition of hydrolysate by rat intestinal acetone powder: Trehalose [7]: 37.6%
- LD50 [8]: ≥ 50000 mg/kg
- Mortality [9]: no mouse died
- Percentage of reducing saccharide released (glucose, maltose, maltotriose, maltotetraose or maltopentaose) [10]: 60.0%
- Percentage of trehalose released [10]: 39.5%
